The nature of one data set: Acute toxicity in mice. The conditions noted are these: mouse, in vivo. The method, then:
The acute toxicity of the compound D 2343 of the invention was investigated.
Male mice (NMRI) 20-25 g were used. The test compound was administered intravenously (by tail vein), subcutaneously. intraperitoneally and orally (by stomach tube to starved animals) in 6 dose levels in log- sequence with 10 or more animals tested at each dose level to determine the LD50'
After toxic doses the death followed within the first hour after i.v., s.c. and i.p. and during the first three hours after p.o. administration. No further mortality was noted during the following 5 days the animals were observed.

In data set [1] the test system is electrically induced contractions of the soleus muscle. As to the kind of experiment: Tremorogenic effect in anaesthetized cat (soleus muscle, simultaneous recording). In kind it is in vivo. The conditions noted are these: narcotized cat, i.v.; based on molar dose giving 30 % decrease of electrically induced soleus contractions; terbutaline = 1; hydrochloride. The method, then: A. Simultaneous recording of bronchospasmolytic effect, tremorogenic effect and heart stimulating effect
The bronchospasmolytic effect and the tremorogenic effect were measured simultaneously in anaesthetized cat.
The method used is described in detail by 0 A T Olsson, Acta pharmacol et toxicol 34, 106-114 (1974).
Cats weighing 2.5-3.5 kg are anaesthetized with pento- barbital (mebumalum NFN) at first by an intraperitoneal injection (30 mg/kg) and afterwards by continuous intravenous infusion to keep the level of anaesthesia constant during the experiment.
The soleus muscle in the hind limb, consisting mainly a -slow contracting fibres, is prepared essentially according to Bowman & Zaimis, J Physiol 144, 92-107 (1958). The muscle is enclosed in a chamber made of a rubbercovered plastic "hair-curler". The entire leg is wrapped in metal foil covered with plastic to keep the temperature constant at 35-36°C (controlled by thermo couples in the.leg). The cat is placed on its back on a thermostatically controlled operation table and the right hind limb fixed, special care being taken not to impede the blood flow.The tendon is cut and attached to a Grass strain gauge (FT 10C). The isometric tension of the muscle is calibrated to 50 g (resting tension) and 500 g (maximal tension). A plexiglas shielded bipolar Pt-electrode is placed on the tibialis nerve, near the soleus. The incomplete tetanic contractions of the muscle are elicited by a square wave pulse stimulation of the nerve by the use of a Grass S48 stimulator. The pulse duration is 0.05 msec, with frequencies selected in the range 8-12 Hz and the strength between 5-8. volts. The stimulation occurs for 1.8 sec every 20 sec.
The bronchospasmolytic effect is measured as the dose, calculated in moles per kg bodyweight of the test animal, which gives 30 % decrease of the histamine induced bronchospasm. […] The heart stimulating effect is measured as the dose, calculated in moles per kg bodyweight of the test animal, which gives 25 % increase in the heart frequency.

The target in another data set is a-receptor. As to the kind of experiment: a-receptor blocking activity, noradrenaline-induced contraction of rabbit aortic strips. Further details: species or system Albino rabbits. From the text:
The a-receptor blocking activity of two compounds of the invention was investigated. This effect is relevant in the treatment of asthma. It has been shown, e.g. by Nousiainen et al, Pharmacology 15, 469-477 (1977), that certain compounds having a-blocking effect may potentiate the effects of S-receptor-stimulating agents such as terbutaline.
In the test, the a-receptor blocking substance thymoxamine was used as reference.
Albino rabbits of both sexes (2-3 kg) were used. About 5 cm of the aorta was dissected out as near the arch as possible, transferred to a dish with Krebs solution and cut spirally. Usually 3 preparations were received from the dissected piece of vessel. Each strip was mounted in an organ bath in Krebs solution of 37°C and aerated with carbogen. The load on the preparation was 2 g and the tension changes recorded isometrically on Grass transducer FR03 and polygraph P5.
Noradrenaline, which is a strong a-receptor stimulating agent, exerts a contracting effect on the aortic strips when added to the bath. The a-receptor blocking effect of the test compound is measured by adding the test compound to the organ bath before adding nor-adrenaline.
Noradrenaline solution with a concentration producing 70-80 % of maximal contraction (0.03-0.06 µg/ml) was used. The test compound was added to the organ bath 10 minutes before the addition of noradrenaline.
The results are measured as the concentration of the test compound which inhibits the noradrenaline-induced contraction by 50 % (EC 50).
The EC 50 values are based on tests on 6 preparations obtained from 3 animals.

In data set [2] the test system is histamine induced bronchoconstriction. As to the kind of experiment: Bronchospasmolytic activity at oral and subcutaneous administration, histamine aerosol, unanaesthetized guinea-pigs. The format is in vivo. The conditions noted are these: for ED50: Cavia porcellus, read-out: Dose protecting 50 % of the test animals against the histamine aerosol during more than 4 minutes (ED50). The method, then: .The bronchospasmolytic activity of a compound of the invention at oral administration was tested on guinea-pigs. The compound according to Example 1 having the code designation D 2343, was tested. Terbutaline was used as reference substance.
The bronchospasmolytic effect was tested as the inhibitory effect on histamine induced bronchoconstriction in unanaesthetized guinea-pigs.
The test animals were exposed to a histamine mist generated by a Roth-Petersen nebulizer from a solution of 0.3 mg/ml of histamine-chloride.
Guinea-pigs, strain Dunkin-Hartle.y, both sexes, 190-250 g were used. Saline treated control animals start a forced and irregular breathing after less than 4 minutes exposure to the aerosol. Drug-treated animals sustaining the histamine aerosol 4 minutes without a breathing influence are regarded as protected. In the study with oral administration, the animals were starved for about 15 hours with water ad libitum before D 2343 or terbutaline was administered by a stomach tube.
Each compound was administered to 30-40 animals.
In the investigation with oral administration the time from drug administration to exposure of the animal to histamine was 30 minutes.
The ED50 doses are calculated on molar basis in moles per kg bodyweight of the test animal.

As usually defined, the LD50 is the dose expected to kill half of the subjects tested. Read a high LD50 as a less toxic substance. The ED50 is the dose that gives a 50% effect, or the effect in half of the subjects.

Values joined by “and” are separate entries in the source; they are usually repeats but may differ in a detail not shown here. Equal entries are not always repeated. Where two headings read alike, the source gives them in different places.

With `COc1ccccc1CCC(C)(C)NCC(O)c1ccc(O)cc1.Cl` (stereo not shown) [D 2343, 1-(4-hydroxyphenyl)--2-[1,1-dimethyl-3-(2-methoxyphenyl)propylamino]-ethanol hydrochloride], the LD50 in “Acute toxicity in mice” (ip, male mice (NMRI)) is 45 mg/kg; in the data set “Acute toxicity in mice” (ip, male mice (NMRI), M = 378.5), 120 µmol/kg; in the data set “Acute toxicity in mice” (iv, male mice (NMRI)), 13 mg/kg; in “Acute toxicity in mice” (iv, male mice (NMRI), M = 378.5), 35 µmol/kg; in “Acute toxicity in mice” (po, starved male mice (NMRI)), 170 mg/kg; in the data set “Acute toxicity in mice” (po, starved male mice (NMRI), M = 378.5), 450 µmol/kg. Further, the LD50 in the data set “Acute toxicity in mice” (sc, male mice (NMRI)) was found to be 50 mg/kg; in “Acute toxicity in mice” (sc, male mice (NMRI), M = 378.5) it was 130 µmol/kg. Besides, the “Tremorogenic effect in relation to the tremorogenic effect of terbutaline” value in data set [1] was 0.5 and 0.5 ±0.1. Moreover, the IC50 on a-receptor (rabbit aortic strips, compound added 10 minutes before noradrenaline, called EC 50, 6 preparations from 3 animals, read-out: Concentration inhibiting 50 % noradrenaline-induced contraction) worked out at 600 ± 200 nM. Besides, the “a-receptor blocking activity compared with thymoxamine” value with a-receptor (rabbit aortic strips, result in words) was “higher than the a-blocking effect of thymoxamine”. For the same compound, in the data set on a-receptor (result in words, no data shown), the “a-blocking effect in relation to β-stimulating effect” value is “obtained in the same dose range as its β-stimulating effect”. In addition, the ED50 in data set [2] (0.5 h, Oral administration (stomach tube, starved), 30 minutes before histamine) was determined as 2.51 ± 0.39 µmol/kg; in data set [2] (sc, 0.25 h, Subcutaneous administration, 15 minutes before histamine challenge) it was 0.34 ± 0.06 µmol/kg. In addition, the “times more active than terbutaline” value in data set [2] (oral administration) is 2.1 times; in data set [2] (subcutaneous administration) it was 2.7 times.

Source of the values: EP0004835A1, “Ethanolamine compounds, processes for their preparation, pharmaceutical preparations containing them and their medicinal use” (priority 1978, dated 1979).
